Patent US10703733B2, “MCL-1 inhibitors” (Gilead Sciences, Inc., priority 2018, dated 2020)
Like-named read-outs stand apart in the source and are kept apart here.

Assays:
[1] = biological target: MCL-1/Bim interaction (recombinant human MCL-1 protein, residues 171-327; biotinylated human Bim peptide, residues 51-76) (Homo sapiens (Human), UniProt Q07820); experiment: MCL-1/Bim Binding AlphaLISA Assay; details: 0.0625 nM 6xHis-Mcl-1 (171-327), 0.0625 nM biotinylated-Bim peptide
Summary of the method: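 AlphaLISA with 0.0625 nM His-tagged MCL-1 and 0.0625 nM biotin-Bim peptide in 20 mM Hepes pH 7.5, 150 mM NaCl, 0.002% Brij 35, 1 mM DTT, 0.01% BSA. Compound preincubated 1 h with MCL-1, Bim added for 2 h, then acceptor and donor beads 1 h each.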

SKBR3 cells = experiment: SKBR3 Cell Viability Assay (CellTiter Glo); format: cell-based; details: CellTiter Glo luminescence, read-out: MCL-1 CV SKBR3 EC50
Summary of the method: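 SKBR3 cells (6,000/well) in McCoy 5A + 10% FBS exposed to serially diluted compound for 72 h at 37° C., 5% CO2. Viability by CellTiter Glo luminescence; % inhibition normalized to DMSO (negative) and 10 μM puromycin (positive).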

Sequence of MCL-1/Bim interaction (recombinant human MCL-1 protein, residues 171-327; biotinylated human Bim peptide, residues 51-76) (Q07820 171-327): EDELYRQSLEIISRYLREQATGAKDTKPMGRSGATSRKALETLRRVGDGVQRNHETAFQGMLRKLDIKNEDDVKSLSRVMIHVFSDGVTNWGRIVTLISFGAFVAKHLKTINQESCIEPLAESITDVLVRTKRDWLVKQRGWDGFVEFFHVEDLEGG

IC50 [1] [nM]	EC50 (SKBR3 cells; Homo sapiens, SK-BR-3, 72 h) [nM]	SMILES	EC50 (SKBR3 cells; 72 hours) [nM]
3.2	10000	CO[C@H]1/C=C/CCC[S@@](=O)(NC(=O)CCc2ccccc2C(F)(F)F)=NC(=O)c2ccc3c(c2)N(C[C@@H]2CC[C@H]21)C[C@@]1(CCCc2cc(Cl)ccc21)CO3 [Example 87]	
0.053	64.1	CCO[C@H]1/C=C/[C@H](OC)[C@@H]2CC[C@H]2CN2C[C@@]3(CCCc4cc(Cl)ccc43)COc3ccc(cc32)C(=O)N=[S@](=O)(NC(=O)c2cn(C)nc2OC)C[C@H]1C [Example 296]	
0.067	79.8	CO[C@H]1/C=C/C[C@H](C)[C@@H](C)[S@@](=O)(NC(=O)[C@H]2C[C@@](C)(O)C2)=NC(=O)c2ccc3c(c2)N(C[C@@H]2CC[C@H]21)C[C@@]1(CCCc2cc(Cl)ccc21)CO3 [Example 166]	
0.059	13.8	COc1nn(C)cc1C(=O)N[S@@]1(=O)=NC(=O)c2ccc3c(c2)N(C[C@@H]2CC[C@H]2[C@@H](OC)/C=C/[C@H](OCCN(C)C)[C@H](C)C1)C[C@@]1(CCCc2cc(Cl)ccc21)CO3 [Example 403]	
0.107	43.1	CCc1nn(C)cc1C(=O)N[S@@]1(=O)=NC(=O)c2ccc3c(c2)N(C[C@@H]2CC[C@H]2[C@@H](OC)/C=C/C[C@H](C)C1)C[C@@]1(CCCc2cc(Cl)ccc21)CO3 [Example 187]	
0.113	196	CCn1cc(C(=O)N[S@@]2(=O)=NC(=O)c3ccc4c(c3)N(C[C@@H]3CC[C@H]3[C@@H](OC)/C=C/CCC2)C[C@@]2(CCCc3cc(Cl)ccc32)CO4)cn1 [Example 405]	
0.1	351	CO[C@H]1/C=C/CCC[S@@](=O)(NC(=O)COC2CCOCC2)=NC(=O)c2ccc3c(c2)N(C[C@@H]2CC[C@H]21)C[C@@]1(CCCc2cc(Cl)ccc21)CO3 [Example 105]	
0.6	3090	CO[C@H]1/C=C/CCC[S@@](=O)(NC(=O)CCCn2cccn2)=NC(=O)c2ccc3c(c2)N(C[C@@H]2CC[C@H]21)C[C@@]1(CCCc2cc(Cl)ccc21)CO3 [Example 85]	
0.063	101	CCO[C@H]1/C=C/C[C@H](C)C[S@@](=O)(NC(=O)c2cn(C)nc2OC)=NC(=O)c2ccc3c(c2)N(C[C@@H]2CC[C@H]21)C[C@@]1(CCCc2cc(Cl)ccc21)CO3 [Example 367]	
0.187	162	CO[C@H]1/C=C/C[C@H](C)C[S@@](=O)(NC(=O)Nc2ccnc(C)c2)=NC(=O)c2ccc3c(c2)N(C[C@@H]2CC[C@H]21)C[C@@]1(CCCc2cc(Cl)ccc21)CO3 [Example 443]	
0.066	95.8	CO[C@H]1/C=C/C[C@H](C)C[S@@](=O)(NC(=O)COC2(C)CCOCC2)=NC(=O)c2ccc3c(c2)N(C[C@@H]2CC[C@H]21)C[C@@]1(CCCc2cc(Cl)ccc21)CO3 [Example 124]	
0.075	68.9	COCC1(COC)Cn2cc(C(=O)N[S@@]3(=O)=NC(=O)c4ccc5c(c4)N(C[C@@H]4CC[C@H]4[C@@H](O)/C=C/C[C@H](C)[C@H]3C)C[C@@]3(CCCc4cc(Cl)ccc43)CO5)cc2CO1 [Example 331]	
0.068	96.4	CO[C@H]1/C=C/C[C@H](C)C[S@@](=O)(NC(=O)[C@H]2C[C@H](OC)C2)=NC(=O)c2ccc3c(c2)N(C[C@@H]2CC[C@H]21)C[C@@]1(CCCc2cc(Cl)ccc21)CO3 [Example 128]	
0.126	155	COc1nn(C)cc1C(=O)N[S@@]1(=O)=NC(=O)c2ccc3c(c2)N(C[C@@H]2CC[C@H]2[C@@H](OC(=O)[C@@H](N)C(C)C)/C=C/C[C@H](C)[C@H]1C)C[C@@]1(CCCc2cc(Cl)ccc21)CO3 [Example 254]	
0.044	118	COc1nn(C)cc1C(=O)N[S@@]1(=O)=NC(=O)c2ccc3c(c2)N(C[C@@H]2CC[C@H]2[C@@H](OC)/C=C/[C@H](OCC(=O)N(C)C)[C@H](C)C1)C[C@@]1(CCCc2cc(Cl)ccc21)CO3 [Example 401]	
0.113	206	CO[C@H]1/C=C/C[C@H](C)C[S@@](=O)(NC(=O)N[C@H]2C[C@H](F)C2)=NC(=O)c2ccc3c(c2)N(C[C@@H]2CC[C@H]21)C[C@@]1(CCCc2cc(Cl)ccc21)CO3 [Example 357]	
0.158	170	CO[C@H]1/C=C/C[C@H](C)C[S@@](=O)(NC(=O)N2CC(F)(F)C2)=NC(=O)c2ccc3c(c2)N(C[C@@H]2CC[C@H]21)C[C@@]1(CCCc2cc(Cl)ccc21)CO3 [Example 323]	

IC50 [1] [nM]	EC50 (SKBR3 cells; Homo sapiens, SK-BR-3, 72 h) [nM]	SMILES	EC50 (SKBR3 cells; 72 hours) [nM]
0.029	84.8	COc1nn(C)cc1C(=O)N[S@@]1(=O)=NC(=O)c2ccc3c(c2)N(C[C@@H]2CC[C@H]2[C@@H](OC)/C=C/[C@H](OC)[C@H](C)C1)C[C@@]1(CCCc2cc(Cl)ccc21)CO3 [Example 283]	
0.056	169	CO[C@H]1/C=C/C[C@H](C)C[S@@](=O)(NC(=O)NC2CCC2)=NC(=O)c2ccc3c(c2)N(C[C@@H]2CC[C@H]21)C[C@@]1(CCCc2cc(Cl)ccc21)CO3 [Example 423]	
0.031	35	CO[C@H]1/C=C/C[C@H](C)C[S@@](=O)(NC(=O)N[C@H]2C[C@@H]2OC)=NC(=O)c2ccc3c(c2)N(C[C@@H]2CC[C@H]21)C[C@@]1(CCCc2cc(Cl)ccc21)CO3 [Example 160]	
0.031	26.7	COCCOCCO[C@H]1/C=C/[C@H](OC)[C@@H]2CC[C@H]2CN2C[C@@]3(CCCc4cc(Cl)ccc43)COc3ccc(cc32)C(=O)N=[S@](=O)(NC(=O)c2cn(C)nc2OC)C[C@H]1C [Example 376]	
0.097	416	CO[C@H]1/C=C/C[C@H](C)C[S@@](=O)(NC(=O)CCc2cnn(C)c2)=NC(=O)c2ccc3c(c2)N(C[C@@H]2CC[C@H]21)C[C@@]1(CCCc2cc(Cl)ccc21)CO3 [Example 142]	
1.8	1690	CO[C@H]1/C=C/CCC[S@@](=O)(NC(=O)CC(C)C)=NC(=O)c2ccc3c(c2)N(C[C@@H]2CC[C@H]21)C[C@@]1(CCCc2cc(Cl)ccc21)CO3 [Example 26]	
0.163	71.5	CO[C@H]1/C=C/C[C@H](C)C[S@@](=O)(NC(=O)[C@@H](O)Cc2ccccc2)=NC(=O)c2ccc3c(c2)N(C[C@@H]2CC[C@H]21)C[C@@]1(CCCc2cc(Cl)ccc21)CO3 [Example 121]	
0.024	13.4	CO[C@H]1/C=C/C[C@H](C)C[S@@](=O)(NC(=O)N[C@H]2C[C@@H]2C(F)F)=NC(=O)c2ccc3c(c2)N(C[C@@H]2CC[C@H]21)C[C@@]1(CCCc2cc(Cl)ccc21)CO3 [Example 311]	
0.235	66.2	CO[C@H]1/C=C/C[C@H](C)C[S@@](=O)(NC(=O)N[C@H]2C[C@H](COC(=O)N(C)C)C2)=NC(=O)c2ccc3c(c2)N(C[C@@H]2CC[C@H]21)C[C@@]1(CCCc2cc(Cl)ccc21)CO3 [Example 335]	
0.037	22.6	COC[C@@H]1Cn2cc(C(=O)N[S@@]3(=O)=NC(=O)c4ccc5c(c4)N(C[C@@H]4CC[C@H]4[C@@H](O)/C=C/C[C@H](C)[C@H]3C)C[C@@]3(CCCc4cc(Cl)ccc43)CO5)cc2CO1 [Example 345]	
0.043	82.6	COCC1(OC)CN(C(=O)N[S@@]2(=O)=NC(=O)c3ccc4c(c3)N(C[C@@H]3CC[C@H]3[C@@H](OC)/C=C/C[C@H](C)C2)C[C@@]2(CCCc3cc(Cl)ccc32)CO4)C1 [Example 274]	
0.054	32.9	CO[C@H]1/C=C/C[C@H](C)C[S@@](=O)(NC(=O)N[C@H]2C[C@@](C)(CO)C2)=NC(=O)c2ccc3c(c2)N(C[C@@H]2CC[C@H]21)C[C@@]1(CCCc2cc(Cl)ccc21)CO3 [Example 314]	
5.3	6040	CCN(C)C(=O)N[S@@]1(=O)=NC(=O)c2ccc3c(c2)N(C[C@@H]2CC[C@H]2[C@@H](OC)/C=C/CCC1)C[C@@]1(CCCc2cc(Cl)ccc21)CO3 [Example 77]	
0.8	4070	CO[C@H]1/C=C/CCC[S@@](=O)(NC(=O)OCc2ccnn2C)=NC(=O)c2ccc3c(c2)N(C[C@@H]2CC[C@H]21)C[C@@]1(CCCc2cc(Cl)ccc21)CO3 [Example 78]	
0.087	144	CO[C@H]1/C=C/C[C@H](C)C[S@@](=O)(NC(=O)N[C@H]2C[C@H]2C)=NC(=O)c2ccc3c(c2)N(C[C@@H]2CC[C@H]21)C[C@@]1(CCCc2cc(Cl)ccc21)CO3 [Example 159]	
0.162	44	CO[C@H]1/C=C/C[C@H](C)C[S@@](=O)(NC(=O)NC2C[C@H]2C(F)F)=NC(=O)c2ccc3c(c2)N(C[C@@H]2CC[C@H]21)C[C@@]1(CCCc2cc(Cl)ccc21)CO3 (some centres unmarked) [Example 207]	

SMILES	IC50 [1] [nM]	EC50 (SKBR3 cells; Homo sapiens, SK-BR-3, 72 h) [nM]	EC50 (SKBR3 cells; 72 hours) [nM]
CO[C@H]1/C=C/C[C@H](C)C[S@@](=O)(NC(=O)c2cc3n(c2F)CCCC3)=NC(=O)c2ccc3c(c2)N(C[C@@H]2CC[C@H]21)C[C@@]1(CCCc2cc(Cl)ccc21)CO3 [Example 174]	0.153		103
CCC(=O)N[S@]1(=O)=NC(=O)c2ccc3c(c2)N(C[C@@H]2CC[C@H]2[C@@H](OC)CCCCC1)C[C@@]1(CCCc2cc(Cl)ccc21)CO3 [Example 17]	11.3		10000
CO[C@H]1/C=C/CCC[S@@](=O)(NC(=O)C2COC2)=NC(=O)c2ccc3c(c2)N(C[C@@H]2CC[C@H]21)C[C@@]1(CCCc2cc(Cl)ccc21)CO3 [Example 24]	0.2	891	
CO[C@H]1/C=C/C[C@H](C)C[S@@](=O)(NC(=O)N2C3COCC2C3)=NC(=O)c2ccc3c(c2)N(C[C@@H]2CC[C@H]21)C[C@@]1(CCCc2cc(Cl)ccc21)CO3 [Example 236]	0.055	152	
